Here are results for five compounds from publication PMC4581724 (Analytical biochemistry, 2015).

Assay [1] has as its target T1, CrAS3MT (Chlamydomonas reinhardtii, UniProt K0BVM7).
T1 sequence (K0BVM7 1-379): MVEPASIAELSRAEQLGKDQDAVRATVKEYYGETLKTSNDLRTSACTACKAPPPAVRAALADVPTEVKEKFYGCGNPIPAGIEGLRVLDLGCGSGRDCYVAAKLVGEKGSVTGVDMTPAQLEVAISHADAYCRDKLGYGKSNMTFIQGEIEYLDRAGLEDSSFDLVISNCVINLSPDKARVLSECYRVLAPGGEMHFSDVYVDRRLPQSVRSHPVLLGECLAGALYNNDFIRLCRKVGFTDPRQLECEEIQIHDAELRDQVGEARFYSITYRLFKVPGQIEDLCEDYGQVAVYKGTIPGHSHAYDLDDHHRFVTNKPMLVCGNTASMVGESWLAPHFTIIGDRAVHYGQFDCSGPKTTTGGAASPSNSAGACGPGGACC
Nature of the assay: biochemical. Type of assay: biochemical.

The next assay relates to Y72W CrAS3MT. Type of assay: binding, Chlamydomonas reinhardtii.
Assay [2] concerns the target T1, CrAS3MT. Type of assay: biochemical.
For the next assay, the system named is SAM methyltransferases. Conditions: read-out: IC50 for SAM methyltransferases; cited from earlier work.

Where two headings read alike, the source gives them in different places.

As to `CSS(C)(=O)=O` [MMTS, methylmethanethiosulfonate], the IC50 at CrAS3MT [1] (read-out: IC50 for inhibition of SAH production (half-maximal inhibition)) worked out at 43 µM. For the same compound, in the assay on Y72W CrAS3MT, the “effect on quenching of Y72W by As(III)” value was “significant reduction in quenching”, the “effect on the fluorescence of Y72W (quenching)” value is “quenched” and the “protein fluorescence quenching at 20 μM MMTS” value was “not substantially quenched”.

With `CCN1C(=O)C=CC1=O` [NEM, N-ethylmaleimide], the “effect on arsenic methylation” value on CrAS3MT [2] is listed as “completely inhibited”. The compound further registered an IC50 on CrAS3MT [1] of 140 µM.

In the case of `[Sb+3]` [Sb(III)], the “effect on the fluorescence of Y72W (quenching)” value with Y72W CrAS3MT is on record as “most quenching at the lowest concentration”.

`Nc1ncnc2c1ncn2[C@@H]1O[C@H](CC(N)CCC(N)C(=O)O)[C@@H](O)[C@H]1O` (stereo partly shown) [sinefungin, 5′-deoxy-5′-(1,4-diamino-4-carboxybutyl)adenosine]: the “effect on formation of DMAs(V)” value on CrAS3MT [2] was “significantly inhibited”. The IC50 at CrAS3MT [1] is 0.5 µM; with SAM methyltransferases, 0.1 to 20 µM. The “effect on As(III)-induced fluorescence quenching” value in the assay on Y72W CrAS3MT is recorded as “no effect”. Also, the “quenching of Y72W fluorescence by sinefungin” value in the assay with Y72W CrAS3MT is on record as “did not quench”.

For arsenite [As(III)], the “As(III) concentration at which activity could be detected” value on CrAS3MT [1] is reported as 10^−8 molar.

Usually IC50 stands for the midpoint of a concentration-inhibition curve.
